Where two headings read alike, the source gives them in different places.
How the values were obtained:
clinical = details: human, in vivo; for CL renal / clearance / half-life / Vd: both sexes; for clearance: Cl
Protocol: The levels of CGA in plasma and urine were analysed using a fully validated method, which included LC-MS/MS analysis. The PK data were analysed based on a non-compartmental model. A model-based approach was implemented for the characterization of the PK properties of the IV formulation in order to estimate the level of PK exposure after different doses administered with different duration of infusion. The model outcomes provided rationales for supporting decision-making through the dose escalation process. The PK parameters were determined using SAS (version 9.3), and modelling of the PK data was performed using NONMEM (version 7.3, ICON Solutions). PART A: Mono-Centre, Randomized, Successive Groups, Double-Blind, Placebo-Controlled Study in Healthy Male and Female Subjects
Part C was a randomized, double-blind, placebo-controlled study. It was conducted in five successive cohorts of 8 healthy male or female subjects each, for a total of 40 subjects. For each of the five cohorts, 6 subjects were administered CGA and 2 subjects received placebo. The study medication was administered IV, first as a loading dose and then as a maintenance dose. The dosage regimen was determined based both on the results of Part A and PK modelling.
For the first three cohorts, three ascending doses of the study medication were administered IV as loading doses of 2.0, 3.0, and 3.6 mg/kg for 20 minutes, respectively, followed by maintenance doses of 2.5, 3.75 and 4.5 mg/kg/h given by IV infusion over a period of […]. For the fourth cohort, a dose of the IV formulation of CGA determined as being well tolerated was administered as a loading dose by IV infusion over 20 minutes, followed by a maintenance dose administered by IV infusion over a period of up to 12 hours. The 5th cohort received the study medication at the same dose and under the same conditions as the 4th cohort, except for the period during which the maintenance dose was administered, which lasted up to 24 hours.
Blood sample for PK measurements were collected at 18 timepoints for the first three cohorts, and 20 timepoints for the 4th and 5th cohorts. These included a sample preceding the administration of the study medication, and the period from 20 minutes to 48 hours following the initiation of the IV infusion. Urine was also collected for PK measurements at the following intervals relative to the time of initiation of the IV infusion: 0-6, 6-12, 12-24, 24-36, and 36-48 hours. […]

plasma NH3 [1] = details: cited from earlier work
CYP2D6 = CYP2D6 (Homo sapiens, UniProt P10635); assay: In vitro CYP inhibition; format: in vitro ADME
Chain of CYP2D6 (P10635 whole entry): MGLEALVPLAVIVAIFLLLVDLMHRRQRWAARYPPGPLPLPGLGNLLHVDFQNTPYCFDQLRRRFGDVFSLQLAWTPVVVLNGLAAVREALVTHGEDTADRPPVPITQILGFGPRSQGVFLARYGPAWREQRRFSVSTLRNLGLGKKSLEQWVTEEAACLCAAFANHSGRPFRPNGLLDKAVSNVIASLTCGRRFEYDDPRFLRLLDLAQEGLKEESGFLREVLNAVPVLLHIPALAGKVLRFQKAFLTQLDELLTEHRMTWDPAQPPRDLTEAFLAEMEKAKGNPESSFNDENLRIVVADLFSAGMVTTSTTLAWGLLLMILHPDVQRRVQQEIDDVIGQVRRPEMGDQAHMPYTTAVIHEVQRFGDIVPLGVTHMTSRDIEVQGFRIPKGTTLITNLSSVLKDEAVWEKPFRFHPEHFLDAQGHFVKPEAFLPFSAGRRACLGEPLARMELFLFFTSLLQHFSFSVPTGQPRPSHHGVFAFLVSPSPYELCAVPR

CYP2C19 = CYP2C19 (Homo sapiens, UniProt P33261); assay: In vitro CYP inhibition; format: in vitro ADME
Chain of CYP2C19 (P33261 whole entry): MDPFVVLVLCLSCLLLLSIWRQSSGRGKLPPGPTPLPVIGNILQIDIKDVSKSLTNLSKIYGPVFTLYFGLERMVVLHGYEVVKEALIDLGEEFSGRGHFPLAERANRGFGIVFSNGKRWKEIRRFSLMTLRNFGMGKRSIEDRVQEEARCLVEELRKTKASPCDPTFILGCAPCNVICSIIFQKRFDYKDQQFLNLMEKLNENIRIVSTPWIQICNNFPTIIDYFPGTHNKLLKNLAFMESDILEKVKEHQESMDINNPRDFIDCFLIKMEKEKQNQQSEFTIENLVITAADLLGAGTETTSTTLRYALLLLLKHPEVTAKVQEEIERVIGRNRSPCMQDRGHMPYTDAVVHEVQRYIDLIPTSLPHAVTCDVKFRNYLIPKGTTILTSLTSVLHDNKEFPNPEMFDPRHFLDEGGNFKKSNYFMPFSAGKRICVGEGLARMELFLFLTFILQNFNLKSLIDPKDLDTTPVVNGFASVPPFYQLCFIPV

plasma NH3 [2] = assay: Rate of reduction of plasma NH3 over 36 hours, population with baseline NH3 over 100/150 micromol/L; format: in vivo, human
Source text: The two populations analyzed included: 1) Population with baseline plasma NH3 levels over 100 micromol/L in non-neonate or 150 micromol/L in neonate; 2) Propensity Matching Score (PMS) Population. […] These rates of decrease were confirmed to be statistically significant.

CYP2C9 = CYP2C9 (Homo sapiens, UniProt P11712); assay: In vitro CYP inhibition; format: in vitro ADME
Chain of CYP2C9 (P11712 whole entry): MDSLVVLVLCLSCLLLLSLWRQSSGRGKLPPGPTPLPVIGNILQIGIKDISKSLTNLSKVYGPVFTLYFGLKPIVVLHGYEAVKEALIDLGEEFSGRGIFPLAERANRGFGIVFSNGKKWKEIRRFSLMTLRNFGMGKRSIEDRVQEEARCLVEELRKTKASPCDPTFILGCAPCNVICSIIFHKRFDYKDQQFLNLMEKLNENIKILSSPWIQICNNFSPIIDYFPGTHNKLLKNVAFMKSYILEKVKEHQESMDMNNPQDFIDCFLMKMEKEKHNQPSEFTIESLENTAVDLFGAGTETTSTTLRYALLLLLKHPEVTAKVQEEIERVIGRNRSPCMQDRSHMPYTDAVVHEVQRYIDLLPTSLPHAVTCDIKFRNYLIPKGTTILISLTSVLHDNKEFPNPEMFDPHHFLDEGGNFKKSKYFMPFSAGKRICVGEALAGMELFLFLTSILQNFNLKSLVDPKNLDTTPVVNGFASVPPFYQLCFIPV

[3] = Adverse reactions in retrospective studies of patients with NAGS deficiency, PA, MMA or IVA; format: in vivo, human; details: Total Population = 80
Source text: Sixty-one percent (61%) of patients were male and 39% of patients were female. In patients with PA, MMA or IVA (48% male and 52% female patients), 57% of decompensation episodes occurred during the first 4 weeks after birth (neonates), and 43% of decompensation episodes occurred beyond the neonatal period. The median age at the start of the decompensation episode was 12 days.

[4] = Population PK model (two-compartment, zero order absorption); design: species or system human; details: value estimated in HVs, fixed in the model
Source text: A population PK model was developed using PK data collected from the PK study mentioned above. The data was collected after variable long treatment periods lasting more than a year in some cases, with different doses, and with different dosage regimens in both pediatric and adult volunteers (N=16).
The sparse drug concentrations (24 PK samples) were fitted using a two-compartment model with zero order absorption rate, which was also used to describe the PK time course in the PK study.
The final models for Clearance and Volume were:
Wherein CL is the value of the clearance in a patient, CLt is the typical value of the clearance in adult subjects, WT is the body weight, TM50 is the maturation half time, g is the Hill coefficient and Vt is the typical value of the volume in adult subjects.

[5] = in most cases, carglumic acid alone, 13 episodes
[6] = second block headed All (N = 5), First 24 hrs
[7] = second block headed All (N = 5), First 48 hrs

NC(=O)N[C@@H](CCC(=O)O)C(=O)O [carglumic acid, N-carbamoyl-L-glutamic acid]
CL renal (clinical; iv, Average renal clearance): 4.83 mL/min/kg
clearance (clinical; iv, Mean): 5.33 mL/min/kg
clearance (clinical; iv, Median): 5.27 mL/min/kg
half-life (clinical; iv, Mean): 28.4 h
half-life (clinical; iv, Median): 28.5 h
CL renal (clinical; iv, Renal Clearance, Mean): 4.83 mL/min/kg
CL renal (clinical; iv, Renal Clearance, Median): 4.98 mL/min/kg
Vd (clinical; iv, Mean): 13 L/kg
Vd (clinical; iv, Median): 12.8 L/kg
Ae (% of the dose excreted), Max (clinical; both, iv): 111.412%
Ae (% of the dose excreted), Mean (clinical; both, iv): 84.478%
Ae (% of the dose excreted), Median (clinical; both, iv): 86.924%
Ae (% of the dose excreted), Min (clinical; both, iv): 38.756%
Cl, Max (clinical; both, iv): 7.3 mL/min/kg
Cl, Min (clinical; both, iv): 3.2 mL/min/kg
Half-life, Max (clinical; both, iv): 39.987 h
Half-life, Min (clinical; both, iv): 13.598 h
Renal Clearance, Max (clinical; both, iv): 8.5 mL/min/kg
Renal Clearance, Min (clinical; both, iv): 1.93 mL/min/kg
Vd, Max (clinical; both, iv): 19.689 L/kg
Vd, Min (clinical; both, iv): 3.897 L/kg
Dose dependence of AUCinf, AUClast and Cmax (clinical): increased linearly
Plasma NH3 level, Mean (SD) (plasma NH3 [1]; All episodes, First 24 hrs): 94.6 (47.6) micromol/L
Plasma NH3 level, Median (plasma NH3 [1]; All episodes, First 24 hrs): 100.0 µmol/L
Plasma NH3 level, Min-Max (plasma NH3 [1]; All episodes, First 24 hrs): 43.3 to 187.9 µmol/L
Plasma NH3 level, Q1-Q3 (plasma NH3 [1]; All episodes, First 24 hrs): 50.0 to 110.5 µmol/L
Plasma NH3 level, Mean (SD) (plasma NH3 [1]; All episodes, First 48 hrs): 80.5 (43.4) micromol/L
Plasma NH3 level, Median (plasma NH3 [1]; All episodes, First 48 hrs): 66.0 µmol/L
Plasma NH3 level, Min-Max (plasma NH3 [1]; All episodes, First 48 hrs): 32.0 to 187.9 µmol/L
Plasma NH3 level, Q1-Q3 (plasma NH3 [1]; All episodes, First 48 hrs): 50.0 to 100.0 µmol/L
Plasma NH3 level, Mean (SD) (plasma NH3 [1]; Non-Neonates, First 24 hrs): 106.1 (56.6) micromol/L
Plasma NH3 level, Median (plasma NH3 [1]; Non-Neonates, First 24 hrs): 100.0 µmol/L
Plasma NH3 level, Min-Max (plasma NH3 [1]; Non-Neonates, First 24 hrs): 47.6 to 187.9 µmol/L
Plasma NH3 level, Q1-Q3 (plasma NH3 [1]; Non-Neonates, First 24 hrs): 50.0 to 170.0 µmol/L
Plasma NH3 level, Mean (SD) (plasma NH3 [1]; Non-Neonates, First 48 hrs): 81.8 (52.2) micromol/L
Plasma NH3 level, Median (plasma NH3 [1]; Non-Neonates, First 48 hrs): 58.0 µmol/L
Plasma NH3 level, Min-Max (plasma NH3 [1]; Non-Neonates, First 48 hrs): 32.0 to 187.9 µmol/L
Plasma NH3 level, Q1-Q3 (plasma NH3 [1]; Non-Neonates, First 48 hrs): 48.8 to 110.5 µmol/L
Time within which a marked reduction in plasma NH3 levels was observed (plasma NH3 [1]; [5]): ≤ 6 h
Time within which plasma NH3 values were normalized (plasma NH3 [1]; [5]): ≤ 30 h
Plasma NH3 level, Mean (SD) (plasma NH3 [1]; [6]): 78.5 (29.6) micromol/L
Plasma NH3 level, Median (plasma NH3 [1]; [6]): 100.0 µmol/L
Plasma NH3 level, Min-Max (plasma NH3 [1]; [6]): 42.3 to 100.0 µmol/L
Plasma NH3 level, Q1-Q3 (plasma NH3 [1]; [6]): 50.0 to 100.0 µmol/L
Plasma NH3 level, Mean (SD) (plasma NH3 [1]; [7]): 78.5 (29.6) micromol/L
Plasma NH3 level, Median (plasma NH3 [1]; [7]): 100.0 µmol/L
Plasma NH3 level, Min-Max (plasma NH3 [1]; [7]): 42.3 to 100.0 µmol/L
Plasma NH3 level, Q1-Q3 (plasma NH3 [1]; [7]): 50.0 to 100.0 µmol/L
Inhibition of CYP2D6 (CYP2D6): not an inhibitor
Inhibition of CYP2C19 (CYP2C19): not an inhibitor
Median time to achieve 50% reduction of plasma NH3 (plasma NH3 [2]; baseline plasma NH3 over 100 micromol/L in non-neonate or 150 micromol/L in neonate): 18 hours post dose
Speed of plasma NH3 reduction versus NH3 Scav alone group (plasma NH3 [2]; first 36 hours after treatment initiation, the two populations analyzed): statistically significantly faster
Inhibition of CYP2C9 (CYP2C9): not an inhibitor
Adverse reaction Abdominal pain, Number of Patients (N) (%) [3]: 4 (5%) N (%)
Adverse reaction Anemia, Number of Patients (N) (%) [3]: 4 (5%) N (%)
Adverse reaction Anorexia, Number of Patients (N) (%) [3]: 2 (3%) N (%)
Adverse reaction Diarrhea, Number of Patients (N) (%) [3]: 5 (5%) N (%)
Adverse reaction Dysgeusia, Number of Patients (N) (%) [3]: 2 (3%) N (%)
Adverse reaction Ear infection, Number of Patients (N) (%) [3]: 3 (4%) N (%)
Adverse reaction Headache, Number of Patients (N) (%) [3]: 3 (4%) N (%)
Adverse reaction Hemoglobin decreased, Number of Patients (N) (%) [3]: 2 (3%) N (%)
Adverse reaction Hyperhidrosis, Number of Patients (N) (%) [3]: 2 (3%) N (%)
Adverse reaction Infection, Number of Patients (N) (%) [3]: 3 (4%) N (%)
Adverse reaction Influenza, Number of Patients (N) (%) [3]: 2 (3%) N (%)
Adverse reaction Jaundice, Number of Patients (N) (%) [3]: 2 (3%) N (%)
Adverse reaction Nasopharyngitis, Number of Patients (N) (%) [3]: 3 (4%) N (%)
Adverse reaction Nervous system disorder, Number of Patients (N) (%) [3]: 2 (3%) N (%)
Adverse reaction Pneumonia, Number of Patients (N) (%) [3]: 2 (3%) N (%)
Adverse reaction Pyrexia, Number of Patients (N) (%) [3]: 7 (9%) N (%)
Adverse reaction Rash, Number of Patients (N) (%) [3]: 2 (3%) N (%)
Adverse reaction Somnolence, Number of Patients (N) (%) [3]: 2 (3%) N (%)
Adverse reaction Tonsillitis, Number of Patients (N) (%) [3]: 4 (5%) N (%)
Adverse reaction Transaminase increased, Number of Patients (N) (%) [3]: 2 (3%) N (%)
Adverse reaction Vomiting, Number of Patients (N) (%) [3]: 6 (8%) N (%)
Adverse reaction Weight decreased, Number of Patients (N) (%) [3]: 2 (3%) N (%)
CLt, typical value of the clearance in adult subjects [4]: 0.178

— patent US20220040129A1, “TREATMENT OF HYPERAMMONEMIA IN PATIENTS WITH RENAL INSUFFICIENCY” (RECORDATI S.p.A., priority 2019, published 2022)
